The numbers were not newly measured in patent US20010044101A1, “IN VITRO METHOD FOR PREDICTING THE EV[…] OF A PROTEIN TO A DRUG TARGETED THEREAGAINST” (priority 1994, published 2001), which cites them from elsewhere.

Like-named read-outs stand apart in the source and are kept apart here.

The subject of the series is HIV-1.

For “(-)-2′-deoxy-5-fluoro-3′-thiacytidine [FTC]”, the IC50 (fourth passage of the wild-type HIV-1 progeny, MT-4 cells, increasing FTC concentration, read-out: IC50 (50% inhibitory concentration)) is greater than 50 µM; the IC50 (passage 6 virus, tested at higher compound concentrations, read-out: IC50) was greater than 250 µM; the IC50 (second passage of the AZT-resistant HIV-1 progeny, MT-4 cells, increasing FTC concentration, read-out: IC50 (50% inhibitory concentration)) was greater than 50 µM.
